Laboratory results as given in patent publication US7332495B2 (priority 2002, dated 2008).
Marks after values point to notes of the source that are not given here.

Tests used:
Kunming mice [1] = experiment: Mice writhing model (acetic acid); assay type: in vivo
Method in brief: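 Mixed-sex mice received test compound at 20 mg/Kg i.p.; controls received saline p.o. (20 ml/Kg). Thirty minutes later 0.7% acetic acid (10 mg/kg i.p.) was injected, and writhes were counted over 5 minutes. Inhibition ratio was calculated relative to control.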

Kunming mice [2] = experiment: Sedation: spontaneous activities recorded with alternating current tube; assay type: in vivo
Protocol: Kunming mice were used, with a male-female ratio of 50-50%. […] After 30 minutes, acetic acid (0.7%, […] i.p.) was injected and the number of writhes was observed during a 5-minute period after acetic acid administration. The inhibition ratio of the writhing threshold was calculated. The alternating current tube is used to record the spontaneous activities for measuring sedation.

rat [3] = experiment: Rat tail flick model (focused radiant heat); assay type: in vivo
Protocol: A 8.75 mm-projecting lamp (12 v, 50 w) was used to give out focused radiant heat. The terminal 3 cm of the tail is exposed to the heat. The intensity of the focused radiant heat is regulated by a transformer to ensure that the time required to elicit a tail flick response is within 3-5 seconds. The rat's pain threshold is pre-tested for 2-3 times; and only animals with stable reactions were used in the pharmaceutical test. The test substance is taken orally 20 mg/kg. The number of rats whose increase in time for eliciting a tail flick response is by 100% or more at the peak of the drug action (30-45 minutes after administration) is used to calculate analgesic effect.
Two species of animals (mice and rats) and four types of pain testing models (i.p. 0.7% acetic acid, s.c. 5% formalin, hot plate 55° C., focused radiant heat) were used.

[4] = Summary of all three algogenic models; assay type: in vivo; settings: in words
Text: All the compounds mentioned above have profound for further value development.

NMDA receptor [5] = experiment: Electrophysiology of hippocampus's pyramidal cell: NMDA-induced current; assay type: cell-based; settings: 100 μM NMDA; read-out: IC50 of suppression of current induced by NMDA
voltage-gating channel = experiment: Electrophysiology of hippocampus's pyramidal cell: voltage-gating channel; assay type: cell-based
NMDA receptor [6] = experiment: Binding test with NMDA receptor; settings: 0.1 μM, 1 μM and 10 μM
rats [7] = experiment: Defervescence in rats given Brewers' yeast; assay type: in vivo; settings: p.o., 60 mg/kg, Brewers' yeast s.c. 7%
Mice [8] = experiment: Swelling caused by p-dimethylbenzene in mice; assay type: in vivo; settings: p.o. 15 or 30 mg/kg
Mice [9] = experiment: Spontaneous activities of mice after oral IV-12; assay type: in vivo; settings: p.o. 15 or 30 mg/kg
Mice [10] = experiment: Jumping test in mice (Narcan precipitated); assay type: in vivo; settings: for Times for jump (IV ± SD): 3 times per day for 7 days, Narcan i.p. 2 mg/kg
Protocol: Sixty-four mice were divided into 4 groups (16 for each group, ? fifty-fifty) Morphine, IV-12-1 (75 mg/Kg) IV-12-2 (100 mg/Kg) and saline were administrated respectively 3 times per day for 7 days with progressive dose increase. On the 7th day, Narcan is injected (i.p. 2 mg/kg) to precipitate withdrawal. The number of times for the mice to jump was recorded and the incidence of the jump calculated.

rats [11] = experiment: Precipitated withdrawal test in rats; assay type: in vivo; settings: for Abstinence syndrome (IV ± SD): 14 days, Narcan i.p. 4 mg/kg
Protocol: 48 rats were divided into 4 groups (12 for each group, ? fifty-fifty). Morphines IV-12-1 (75 mg/Kg), IV-12-2 (100 mg/Kg) and saline, was administered respectively using progressive dose increase for 14 days and 3 times per day. On the 15th day, Narcan is injected (i.p. 4 mg/kg) to precipitate withdrawal. The withdrawal syndrome was observed and the rats wre weighed at 30, 60 and 120 minutes after the injection respectively.

rats [12] = experiment: Conditional position preference in rats
Text: A commercially available device for testing (Med Associates Inc.) was used. Measurements were automatically recorded by a computer.
The data are indicated by means of […], t-test was employed to compare the data in different groups. The rats were divided randomly into groups by weight, 12 for each group. They were positive control groups. […] The experiments were divided into stages of accommodation, training and test. Accommodation: Open the doors between black box and grey box and the door between white box and grey box. put the rats in from the grey box; let them run free in the training box for 15 minutes for 4 days. Training: The white box is with medicine while the black one is without it. The period training is 10 days, the first day with the medicine while the second day not; the third day with the medicine while the fourth day not, so on and so forth. When carrying out the training with medicine, 15 minutes after the rat is administrated (i.g.) with medicine, it is put into the white box for 30 minutes. When the training is without medicine, 15 minutes after the rat is administrated (i.g.) with saline, it is put into the black box for 30 minutes. Test: On the 11th day, the rat is put into the training box, with the door open. The time the rat stays in each box, and the number of time it enters during 15 minutes were determined, and the percentage of the time staying in the white box to the time together in white box and black box is calculated (Table 12).

Acute toxicity in mice = settings: mouse, in vivo, po, Bliss method
Acute toxicity in rats = settings: rat, in vivo, po, Bliss method
[13] = system: S. typhimurium TA97, TA98, TA100 and TA102; experiment: Bacterial reverse-mutation assay (Ames); assay type: cell-based; settings: for Effect on bacterial growth: 5000 μg/plate
Text: Strains: S. typhimurium TA97, TA98, TA100 and TA102
Results: The assay included two parts without S9 and with S9. […] For all tested doses, there was no significant increase of revertants. Ames test for of IV-12 is negative.

rat [14] = experiment: Rat tail flick model (focused radiant heat); assay type: in vivo; settings: po, read-out: Analgesia ED50

Nc1ccc(CN2CCN(CC(=O)c3ccccc3)CC2)cc1 [IV-12, N^1-(4-aminobenzyl)-N^4-phenacyl piperazine]
Writhing (K i) (Kunming mice [1]; 20 mg/kg, Table 5 summary): 100
inhibition in vivo at 20 mg/kg (Kunming mice [1]; Mus musculus, ip, i.p. 20 mg/Kg, acetic acid 0.7% i.p. after 30 minutes, writhes in 5 minutes, read-out: Analgesia (inhibition ratio of writhing)): 100%
ED50 (Kunming mice [1]; Mus musculus, po, Mice, Acetic acid Writhing, read-out: Analgesia ED50): 13.2 mg/kg
Sedation (writhing model) (Kunming mice [2]; 20 mg/kg, Table 5 summary): 97
inhibition in vivo at 20 mg/kg (Kunming mice [2]; Mus musculus, ip, i.p. 20 mg/Kg, spontaneous activities): 97%
Increase (tail flick) (%) (rat [3]; 20 mg/kg, Table 5 summary): 34%
change in vivo at 20 mg/kg (rat [3]; Rattus norvegicus, po, orally 20 mg/kg, read-out: increase (%) of tail flick time): 34%
After (s) tail flick time (rat [3]; orally 20 mg/kg, 30-45 minutes after administration): 10.05 s
Analgesic effect on all three algogenic models [4]: powerful analgesic effects
Sedative effect on all three algogenic models [4]: rather significant sedative effect
IC50 (NMDA receptor [5]): 1110 ± 1000 nM
Effect on voltage-gating channel (voltage-gating channel): did not affect
Antagonism on Glu site of NMDA receptor (NMDA receptor [6]): no antagonism
Antagonism on Gly site of NMDA receptor (NMDA receptor [6]): no antagonism
Antagonism on ion-channel site of NMDA receptor (NMDA receptor [6]): no antagonism
Defervescence effect (rats [7]): no defervescence effect
Antagonism for swelling caused by p-dimethylbenzene (Mice [8]): no antagonism
Behaviour / spontaneous activities (Mice [9]): quiet and suppressed from spontaneous activities
Incidence for jump (%) (Mice [10]; IV-12-1 (75 mg/Kg)): 43.8*^## %
Times for jump (IV ± SD) (Mice [10]; IV-12-1 (75 mg/Kg)): 9 ± 18
Incidence for jump (%) (Mice [10]; IV-12-2 (100 mg/Kg)): 62.5* %
Times for jump (IV ± SD) (Mice [10]; IV-12-2 (100 mg/Kg)): 33 ± 40
Percent of the lost weight (IV ± SD) (rats [11]; IV-12-1 (75 mg/Kg), 30 min after Narcan): −1.8 ± 1.4
Percent of the lost weight (IV ± SD) (rats [11]; IV-12-1 (75 mg/Kg), 60 min after Narcan): −2.6 ± 1.5
Percent of the lost weight (IV ± SD) (rats [11]; IV-12-1 (75 mg/Kg), 120 min after Narcan): −3.1 ± 1.5
Abstinence syndrome (IV ± SD) (rats [11]; IV-12-1 (75 mg/Kg)): 4.7 ± 3.9
Percent of the lost weight (IV ± SD) (rats [11]; IV-12-2 (100 mg/Kg), 30 min after Narcan): −3.1 ± 1.3
Percent of the lost weight (IV ± SD) (rats [11]; IV-12-2 (100 mg/Kg), 60 min after Narcan): −3.9 ± 1.4
Percent of the lost weight (IV ± SD) (rats [11]; IV-12-2 (100 mg/Kg), 120 min after Narcan): −4.2 ± 1.5
Abstinence syndrome (IV ± SD) (rats [11]; IV-12-2 (100 mg/Kg)): 5.3 ± 2.1
Percent in the medicine box (%) (rats [12]; 10 mg/kg i.g.): 46.1 ± 16.3%
Percent in the medicine box (%) (rats [12]; 20 mg/kg i.g.): 51.9 ± 9.8%
Percent in the medicine box (%) (rats [12]; 50 mg/kg i.g.): 62.9 ± 5.4 %
LD50 (Acute toxicity in mice): 309 mg/kg
LD50 (Acute toxicity in rats): 414 mg/kg
Effect on bacterial growth ([13]; with S9, TA97): inhibitory effect
Effect on bacterial growth ([13]; without S9, TA98): inhibitory effect
Ames test ([13]; without S9 and with S9, TA97, TA98, TA100, TA102): negative
ED50 (rat [14]): 162 mg/kg
